The text below walks through data of ChEMBL document CHEMBL3822390, “Synthesis, characterization and anti-cancer activity of a peptide nucleolipid bioconjugate” (2016).

What all share (type): functional
A short description of assay [1]: Cytotoxicity against human MOLT4 cells assessed as cell growth at 10 uM after 48 hrs by SRB assay. Particulars: MOLT-4, 48 h, read-out: Activity. (In general: The SRB assay estimates cell density from bound dye.)
The subject of the next assay is EKVX. Put plainly: Cytotoxicity against human EKVX cells assessed as cell growth at 10 uM after 48 hrs by SRB assay. The conditions noted are these: read-out: Activity.
The test system of the next assay is NCI-H23. Kind of assay: Cytotoxicity against human NCI-H23 cells assessed as cell growth at 10 uM after 48 hrs by SRB assay. The conditions noted are these: NCI-H23, 48 h, read-out: Activity.
Assay [2] can be described thus: Cytotoxicity against human SNB19 cells assessed as cell growth at 10 uM after 48 hrs by SRB assay. The conditions noted are these: SNB-19, 48 h, read-out: Activity.
Assay [3] is described as follows: Cytotoxicity against human OVCAR8 cells assessed as cell growth at 10 uM after 48 hrs by SRB assay. The conditions noted are these: OVCAR-8, 48 h, read-out: Activity.
Assay [4] can be described thus: Cytotoxicity against human Caki1 cells assessed as cell growth at 10 uM after 48 hrs by SRB assay. The conditions noted are these: CAKI-1, 48 h, read-out: Activity.
A short description of assay [5]: Cytotoxicity against human RXF393 cells assessed as cell growth at 10 uM after 48 hrs by SRB assay. The conditions noted are these: RXF 393, 48 h, read-out: Activity.
A short description of assay [6]: Cytotoxicity against human PC3 cells assessed as cell growth at 10 uM after 48 hrs by SRB assay. Particulars: PC-3, 48 h, read-out: Activity.
Assay [7] is described as follows: Cytotoxicity against human Hs 578T cells assessed as cell growth at 10 uM after 48 hrs by SRB assay. The conditions noted are these: read-out: Activity.
The nature of assay [8]: Cytotoxicity against human HCT15 cells assessed as cell growth at 7.25 uM after 48 hrs by SRB assay. Particulars: HCT-15, 48 h, read-out: Activity.
The nature of assay [9]: Cytotoxicity against human SNB75 cells assessed as cell growth at 7.25 uM after 48 hrs by SRB assay. The conditions noted are these: SNB-75, 48 h, read-out: Activity.
Another assay concerns M14. Put plainly: Cytotoxicity against human M14 cells assessed as cell growth at 7.25 uM after 48 hrs by SRB assay. Particulars: M14, 48 h, read-out: Activity.
The nature of assay [10]: Cytotoxicity against human OVCAR4 cells assessed as cell growth at 7.25 uM after 48 hrs by SRB assay. Particulars: OVCAR-4, 48 h, read-out: Activity.
Assay [11] in a line: Cytotoxicity against human OVCAR8 cells assessed as cell growth at 7.25 uM after 48 hrs by SRB assay. The conditions noted are these: OVCAR-8, 48 h, read-out: Activity.
Assay [12] in a line: Cytotoxicity against human NCI-ADR-RES cells assessed as cell growth at 7.25 uM after 48 hrs by SRB assay. The conditions noted are these: read-out: Activity.
In the next assay the test system is ACHN. Put plainly: Cytotoxicity against human ACHN cells assessed as cell growth at 7.25 uM after 48 hrs by SRB assay. The conditions noted are these: read-out: Activity.
Assay [13] is described as follows: Cytotoxicity against human SF268 cells assessed as cell growth at 2.13 uM after 48 hrs by SRB assay. The conditions noted are these: SF-268, 48 h, read-out: Activity.
The test system of the next assay is U-251. Put plainly: Cytotoxicity against human U251 cells assessed as cell growth at 2.13 uM after 48 hrs by SRB assay. Particulars: U-251, 48 h, read-out: Activity.
Another assay deals with SK-MEL-28. Put plainly: Cytotoxicity against human SK-MEL-28 cells assessed as cell growth at 2.13 uM after 48 hrs by SRB assay. Particulars: SK-MEL-28, 48 h, read-out: Activity.
A short description of assay [14]: Cytotoxicity against human NCI-ADR-RES cells assessed as cell growth at 2.13 uM after 48 hrs by SRB assay. Particulars: read-out: Activity.
A further assay has as its system 786-0. Kind of assay: Cytotoxicity against human 786-0 cells assessed as cell growth at 2.13 uM after 48 hrs by SRB assay. Particulars: 786-0, 48 h, read-out: Activity.
The nature of assay [15]: Cytotoxicity against human Caki1 cells assessed as cell growth at 2.13 uM after 48 hrs by SRB assay. Particulars: CAKI-1, 48 h, read-out: Activity.
Assay [16] in a line: Cytotoxicity against human BT549 cells assessed as cell growth at 2.13 uM after 48 hrs by SRB assay. The conditions noted are these: BT-549, 48 h, read-out: Activity.
The test system of a further assay is NCI-H522. Kind of assay: Cytotoxicity against human NCI-H522 cells assessed as cell growth at 2.13 uM after 48 hrs by SRB assay. Particulars: NCI-H522, 48 h, read-out: Activity.
The nature of assay [17]: Cytotoxicity against human COLO205 cells assessed as cell growth at 2.13 uM after 48 hrs by SRB assay. Particulars: COLO 205, 48 h, read-out: Activity.
In the next assay the test system is KM12. Put plainly: Cytotoxicity against human KM12 cells assessed as cell growth at 2.13 uM after 48 hrs by SRB assay. The conditions noted are these: KM12, 48 h, read-out: Activity.

For the compound `CC(C)C[C@H](NC(=O)[C@H](CCCCN)NC(=O)[C@H](C)NC(=O)[C@H](CC(C)C)NC(=O)[C@H](CCCCN)NC(=O)[C@H](CCCCN)NC(=O)[C@H](C)NC(=O)[C@H](CC(C)C)NC(=O)[C@H](CCCCN)NC(=O)[C@H](C)NC(=O)[C@H](CC(C)C)NC(=O)[C@H](CCCCN)NC(=O)[C@@H](N)CC(=O)O)C(=O)N[C@@H](C)C(=O)N[C@@H](CCCCN)C(=O)N[C@@H](C)C(=O)N[C@@H](CCCCN)C(N)=O`, the growth at 10 µM stood at 86.4% in assay [1]; 104% in the assay with EKVX; 103% in the assay with NCI-H23; 106% in [2]; 101% in [3]; 99.4% in assay [4]. The growth at 10 µM in [5] was 110%; in [6] it was 94.7%; in assay [7] it was 107%.

Consider `CCCCCCCCCCCCCCCC(=O)NCCCC[C@H](NC(=O)[C@H](C)NC(=O)[C@H](CCCCN)NC(=O)[C@H](C)NC(=O)[C@H](CC(C)C)NC(=O)[C@H](CCCCN)NC(=O)[C@H](C)NC(=O)[C@H](CC(C)C)NC(=O)[C@H](CCCCN)NC(=O)[C@H](CCCCN)NC(=O)[C@H](C)NC(=O)[C@H](CC(C)C)NC(=O)[C@H](CCCCN)NC(=O)[C@H](C)NC(=O)[C@H](CC(C)C)NC(=O)[C@H](CCCCN)NC(=O)[C@@H](N)CC(=O)O)C(N)=O`, for which the growth at 7.25 µM in assay [8] is 109%; in assay [9] it was 93.6%; with M14, 102%; in assay [10], 116%; in [11] it was 96.4%; in assay [12], 111%. Further, the growth at 7.25 µM in the assay with ACHN is 99.3%.

For `CCCCCCCCCCCCCCCCNCCO[C@H]1C[C@H](n2cc(C)c(=O)[nH]c2=O)O[C@@H]1C(=O)NCCCC[C@H](NC(=O)[C@H](C)NC(=O)[C@H](CCCCN)NC(=O)[C@H](C)NC(=O)[C@H](CC(C)C)NC(=O)[C@H](CCCCN)NC(=O)[C@H](C)NC(=O)[C@H](CC(C)C)NC(=O)[C@H](CCCCN)NC(=O)[C@H](CCCCN)NC(=O)[C@H](C)NC(=O)[C@H](CC(C)C)NC(=O)[C@H](CCCCN)NC(=O)[C@H](C)NC(=O)[C@H](CC(C)C)NC(=O)[C@H](CCCCN)NC(=O)[C@@H](N)CC(=O)O)C(N)=O`, the growth at 2.13 µM was 100% in assay [13]; 92.7% with U-251; 102% with SK-MEL-28; 109% in assay [14]; 107% in the assay with 786-0; 96.1% in assay [15]. The growth at 2.13 µM in [16] was determined as 113%; in the assay with NCI-H522 it was 88.8%; in assay [17] it was 109%; in the assay on KM12, 103%.
